# Assays:
# PstS = PstS (Xanthomonas citri, UniProt A0AAI8ESD8); test: thermal unfolding by CD at […] nm; assay type: binding; conditions: Tm without to with 30 μM NaH2PO4; 2 μM protein, 10 mM Tris-HCl pH 8.0, 20-95 °C
# PhoX = PhoX (Xanthomonas citri, UniProt A0AAI8ERC0); test: thermal unfolding by CD at […] nm; assay type: binding; conditions: Tm without to with 30 μM NaH2PO4; 2 μM protein, 10 mM Tris-HCl pH 8.0, 20-95 °C
# Chain of PhoX (A0AAI8ERC0 entry or part of it): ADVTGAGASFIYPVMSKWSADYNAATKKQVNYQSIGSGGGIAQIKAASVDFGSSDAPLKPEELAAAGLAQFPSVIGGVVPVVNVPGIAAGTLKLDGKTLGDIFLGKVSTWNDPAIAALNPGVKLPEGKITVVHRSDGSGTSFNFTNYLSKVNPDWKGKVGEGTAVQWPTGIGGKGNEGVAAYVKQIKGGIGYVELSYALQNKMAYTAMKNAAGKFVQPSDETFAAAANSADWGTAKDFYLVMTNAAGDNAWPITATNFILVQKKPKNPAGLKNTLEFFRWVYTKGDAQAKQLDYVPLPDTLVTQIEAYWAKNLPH
# Chain of PstS (A0AAI8ESD8 entry or part of it): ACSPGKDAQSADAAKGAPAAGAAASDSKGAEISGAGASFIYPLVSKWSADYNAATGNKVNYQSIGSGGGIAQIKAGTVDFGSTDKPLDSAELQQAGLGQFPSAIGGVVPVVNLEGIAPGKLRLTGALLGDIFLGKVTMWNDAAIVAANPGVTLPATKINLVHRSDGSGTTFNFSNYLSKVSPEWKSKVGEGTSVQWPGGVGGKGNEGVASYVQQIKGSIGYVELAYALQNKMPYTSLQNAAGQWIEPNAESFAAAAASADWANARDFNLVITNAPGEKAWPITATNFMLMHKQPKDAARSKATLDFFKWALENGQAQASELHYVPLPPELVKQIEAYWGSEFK
smiles,measurement,setting,value
O=P(O)(O)O [phosphate],Tm,PstS,71 to 78 °C
same,Tm,PhoX,64 to 77 °C
